Assay results taken from ChEMBL document CHEMBL1201862, “PubChem BioAssay data set” (2004).
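Each compound was tested at five concentrations against cells in 96-well plates for 48 hours. The concentration for 50% growth inhibition is given as GI50.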 Active and inactive are the calls of the source. Rule as the data show it: active = GI50 up to about 1.1 µM and inactive = higher.

Experiments:
Test in all cases: NCI tumour cell line growth inhibition, 48 h
IGROV-1 = system: IGROV-1
BT-549 = system: BT-549
SK-MEL-28 = system: SK-MEL-28
ACHN = system: ACHN
CAKI-1 = system: CAKI-1
A498 = system: A498
RXF 393 = system: RXF 393
EKVX = system: EKVX
HT-29 = system: HT-29
NCI-H226 = system: NCI-H226
MDA-N = system: MDA-N
UO-31 = system: UO-31
MDA-MB-435 = system: MDA-MB-435
TK-10 = system: TK-10
786-0 = system: 786-0
HCT-116 = system: HCT-116
COLO 205 = system: COLO 205
MDA-MB-231 = system: MDA-MB-231
SR = system: SR
HCC 2998 = system: HCC 2998
CCRF-CEM = system: CCRF-CEM
M14 = system: M14
OVCAR-8 = system: OVCAR-8
SK-MEL-2 = system: SK-MEL-2
OVCAR-4 = system: OVCAR-4
U-251 = system: U-251
MOLT-4 = system: MOLT-4
T47D = system: T47D
SK-MEL-5 = system: SK-MEL-5
DU-145 = system: DU-145
RPMI-8226 = system: RPMI-8226
Hs-578T = system: Hs-578T
SNB-75 = system: SNB-75
HCT-15 = system: HCT-15
NCI/ADR-RES = system: NCI/ADR-RES
SF-295 = system: SF-295
UACC-62 = system: UACC-62
SW-620 = system: SW-620
MCF7 = system: MCF7
A549 = system: A549
KM12 = system: KM12
SK-OV-3 = system: SK-OV-3
UACC-257 = system: UACC-257
OVCAR-3 = system: OVCAR-3
HOP-62 = system: HOP-62
SF-268 = system: SF-268
SN12C = system: SN12C
NCI-H23 = system: NCI-H23
NCI-H522 = system: NCI-H522
NCI-H460 = system: NCI-H460
PC-3 = system: PC-3
OVCAR-5 = system: OVCAR-5
K562 = system: K562
Malme-3M = system: Malme-3M
SNB-19 = system: SNB-19
SF-539 = system: SF-539
HOP-92 = system: HOP-92
LOX IMVI = system: LOX IMVI

Structure (SMILES): Cc1ccc(S(=O)(=O)N2CCN3C(=O)c4ccccc4C32c2ccc(F)cc2)cc1 (stereo unspecified)
- GI50 (IGROV-1): 22.9 µM (inactive)
- GI50 (BT-549): > 100 µM (inactive)
- GI50 (SK-MEL-28): 71 µM (inactive)
- GI50 (ACHN): 95.1 µM (inactive)
- GI50 (CAKI-1): 57.3 µM (inactive)
- GI50 (A498): 16.2 µM (inactive)
- GI50 (RXF 393): 65.2 µM (inactive)
- GI50 (EKVX): 67.8 µM (inactive)
- GI50 (HT-29): 40.6 µM (inactive)
- GI50 (NCI-H226): 64 µM (inactive)
- GI50 (MDA-N): 27.5 µM (inactive)
- GI50 (UO-31): 44.5 µM (inactive)
- GI50 (MDA-MB-435): 32.8 µM (inactive)
- GI50 (TK-10): > 100 µM (inactive)
- GI50 (786-0): > 100 µM (inactive)
- GI50 (HCT-116): 42.1 µM (inactive)
- GI50 (COLO 205): 34.9 µM (inactive)
- GI50 (MDA-MB-231): > 100 µM (inactive)
- GI50 (SR): 16.9 µM (inactive)
- GI50 (HCC 2998): > 100 µM (inactive)
- GI50 (CCRF-CEM): 35.1 µM (inactive)
- GI50 (M14): > 100 µM (inactive)
- GI50 (OVCAR-8): > 100 µM (inactive)
- GI50 (SK-MEL-2): 55.6 µM (inactive)
- GI50 (OVCAR-4): > 100 µM (inactive)
- GI50 (U-251): > 100 µM (inactive)
- GI50 (MOLT-4): 23.8 µM (inactive)
- GI50 (T47D): 56.6 µM (inactive)
- GI50 (SK-MEL-5): 17.7 µM (inactive)
- GI50 (DU-145): 78.7 µM (inactive)
- GI50 (RPMI-8226): 23.8 µM (inactive)
- GI50 (Hs-578T): > 100 µM (inactive)
- GI50 (SNB-75): 72.1 µM (inactive)
- GI50 (HCT-15): 80.9 µM
- GI50 (NCI/ADR-RES): 52 µM (inactive)
- GI50 (SF-295): 85.7 µM (inactive)
- GI50 (UACC-62): 44.9 µM (inactive)
- GI50 (SW-620): 87.9 µM (inactive)
- GI50 (MCF7): 43.4 µM (inactive)
- GI50 (A549): 51.4 µM (inactive)
- GI50 (KM12): 43.7 µM (inactive)
- GI50 (SK-OV-3): > 100 µM (inactive)
- GI50 (UACC-257): 56 µM (inactive)
- GI50 (OVCAR-3): > 100 µM (inactive)
- GI50 (HOP-62): > 100 µM (inactive)
- GI50 (SF-268): 98.4 µM (inactive)
- GI50 (SN12C): 32.7 µM (inactive)
- GI50 (NCI-H23): 97.7 µM (inactive)
- GI50 (NCI-H522): 55.8 µM (inactive)
- GI50 (NCI-H460): 67.6 µM (inactive)
- GI50 (PC-3): 32 µM (inactive)
- GI50 (OVCAR-5): > 100 µM (inactive)
- GI50 (K562): 42.4 µM (inactive)
- GI50 (Malme-3M): > 100 µM (inactive)
- GI50 (SNB-19): > 100 µM (inactive)

Structure (SMILES): O=C(/C=C/c1ccc(O)c(O)c1)O[C@H]1CCCC[C@@H]1OC(=O)/C=C/c1ccc(O)c(O)c1
- GI50 (IGROV-1): 4.9 µM (inactive)
- GI50 (BT-549): 17.5 µM (inactive)
- GI50 (SK-MEL-28): 15.8 µM (inactive)
- GI50 (ACHN): 7.98 µM (inactive)
- GI50 (CAKI-1): 7.48 µM (inactive)
- GI50 (A498): 22.3 µM (inactive)
- GI50 (RXF 393): 10.5 µM (inactive)
- GI50 (EKVX): 20.6 µM (inactive)
- GI50 (MDA-N): 8.87 µM (inactive)
- GI50 (UO-31): 7.03 µM (inactive)
- GI50 (MDA-MB-435): 8.83 µM (inactive)
- GI50 (TK-10): 14.9 µM (inactive)
- GI50 (786-0): 7.48 µM (inactive)
- GI50 (HCT-116): 3.72 µM (inactive)
- GI50 (COLO 205): 22.9 µM (inactive)
- GI50 (MDA-MB-231): 20.5 µM (inactive)
- GI50 (SR): 5.87 µM (inactive)
- GI50 (HCC 2998): 11.2 µM (inactive)
- GI50 (CCRF-CEM): 4.8 µM (inactive)
- GI50 (M14): 15.9 µM (inactive)
- GI50 (OVCAR-8): 10.9 µM (inactive)
- GI50 (SK-MEL-2): 22.7 µM (inactive)
- GI50 (OVCAR-4): 17.9 µM (inactive)
- GI50 (U-251): 14.8 µM (inactive)
- GI50 (MOLT-4): 3.85 µM (inactive)
- GI50 (T47D): 16.2 µM (inactive)
- GI50 (SK-MEL-5): 6.04 µM (inactive)
- GI50 (DU-145): 13.8 µM (inactive)
- GI50 (SF-539): 11.1 µM (inactive)
- GI50 (RPMI-8226): 9.18 µM (inactive)
- GI50 (Hs-578T): 29.9 µM (inactive)
- GI50 (SNB-75): 17.8 µM (inactive)
- GI50 (HCT-15): 6.73 µM
- GI50 (NCI/ADR-RES): 21.8 µM (inactive)
- GI50 (SF-295): 12.9 µM (inactive)
- GI50 (UACC-62): 8.09 µM (inactive)
- GI50 (SW-620): 3.52 µM (inactive)
- GI50 (MCF7): 19.2 µM (inactive)
- GI50 (HOP-92): 8.93 µM (inactive)
- GI50 (A549): 11.7 µM (inactive)
- GI50 (KM12): 20.7 µM (inactive)
- GI50 (SK-OV-3): 15.8 µM (inactive)
- GI50 (UACC-257): 15.6 µM (inactive)
- GI50 (OVCAR-3): 5.51 µM (inactive)
- GI50 (HOP-62): 9.77 µM (inactive)
- GI50 (SF-268): 11.6 µM (inactive)
- GI50 (SN12C): 13.6 µM (inactive)
- GI50 (NCI-H23): 13.6 µM (inactive)
- GI50 (NCI-H522): 5.22 µM (inactive)
- GI50 (LOX IMVI): 3.45 µM (inactive)
- GI50 (NCI-H460): 5.14 µM (inactive)
- GI50 (PC-3): 15.6 µM (inactive)
- GI50 (OVCAR-5): 15.6 µM (inactive)
- GI50 (K562): 7.57 µM (inactive)
- GI50 (Malme-3M): 15.7 µM (inactive)
- GI50 (SNB-19): 12.3 µM (inactive)
